By LD50 is commonly meant the dose expected to kill half of the subjects tested. A higher LD50 goes with lower toxicity.

Drawing on the CATMoS acute toxicity set (Mansouri et al. 2021), this text covers LD50 for 94 molecules.

Where “and” joins values, the source holds several entries; their conditions need not be identical. Identical values can stand only once.

The nature of the series: rat acute oral toxicity. The note with it: in vivo.

As for `C1=CC2CCC1C2`, the median lethal dose (LD50) came to 9580 mg/kg.

Regarding `O=P1(N(CCCl)CCCl)NCCCO1` (centres undefined), the LD50 worked out at 100 mg/kg.

Molecule `CC(=O)C(C)C` returned an LD50 of 148 mg/kg.

`COP(=O)(OC)O/C(=C\Cl)c1cc(Cl)c(Cl)cc1Cl` gave an LD50 of 480 mg/kg.

As for `CSc1ccc2c(c1)N(CCC1CCCCN1C)c1ccccc1S2` (centres undefined), the LD50 worked out at 995 mg/kg.

Turning to `CNC(=O)N(C)c1nnc(C(C)(C)C)s1`, the LD50 worked out at 640 mg/kg.

`c1ccc2ccccc2c1` gave an LD50 of 2200 mg/kg.

`CCCCCCCCCc1ccc(OP(Oc2ccc(CCCCCCCCC)cc2)Oc2ccc(CCCCCCCCC)cc2)cc1` yielded an LD50 of 10000 mg/kg.

`CCOP(=S)(OCC)SCCSCC` returned an LD50 of 1.9 mg/kg.

The molecule `CC(C)[C@H](C(=O)OC(C#N)c1cccc(Oc2ccccc2)c1)c1ccc(OC(F)F)cc1` (some centres undefined) registered an LD50 of 67 mg/kg.

For the molecule `CCOc1ccc2c(c1)C(C)=CC(C)(C)N2`, the LD50 was found to be 800 mg/kg.

Molecule `Clc1cc2c(cc1Cl)Oc1cc(Cl)c(Cl)cc1O2` showed an LD50 of 0.02 mg/kg.

The molecule `C[Si]1(CCC(F)(F)F)O[Si](C)(CCC(F)(F)F)O[Si](C)(CCC(F)(F)F)O1` (centres undefined) displayed an LD50 of 180 mg/kg.

In turn, `CCCN(CC1CC1)c1c([N+](=O)[O-])cc(C(F)(F)F)cc1[N+](=O)[O-]` showed an LD50 of 1810 mg/kg.

`CCCCOCCOCCO` gave an LD50 of 5080 mg/kg.

As to `Cc1ccc([N+](=O)[O-])cc1`, the LD50 is 2050 mg/kg.

For `O=c1n(Cl)c(=O)n(Cl)c(=O)n1Cl`, the LD50 worked out at 406 mg/kg.

In turn, `CCCC(=O)OC(C(Cl)(Cl)Cl)P(=O)(OC)OC` (centres undefined) gave an LD50 of 760 mg/kg.

`CN(C)S(=O)(=O)Cl` gave a median lethal dose (LD50) of 1220 mg/kg.

The molecule `CCCCCCCCCCCC[N+](C)(C)[O-]` yielded an LD50 of 1060 mg/kg.

Regarding `CC=C1CC2C=CC1C2` (centres undefined), the LD50 was 2280 mg/kg.

As for `Clc1cc(-c2cc(Cl)c(Cl)c(Cl)c2)cc(Cl)c1Cl`, the LD50 amounted to 4250 mg/kg.

As to `O=[N+]([O-])c1ccc(Oc2ccc(Cl)cc2Cl)cc1`, the LD50 is 2410 mg/kg.

On to `CC(C)CC=O`, for which the LD50 worked out at 5600 mg/kg.

`Clc1cc(Cl)c(Cl)nc1Cl` showed an LD50 of 1000 mg/kg.

With `CNS(=O)(=O)c1cc(OC)c(N)cc1OC`, the LD50 turned out to be 815 mg/kg.

The molecule `CCCCC(CC)CO` (centres undefined) had an LD50 of 2050 mg/kg.

Take `CCN(CC)CCCN`: the LD50 came to 410 mg/kg.

The molecule `Clc1ccccc1` showed an LD50 of 1110 mg/kg.

Consider `COc1ccc2c(c1)c(CC(=O)O)c(C)n2C(=O)c1ccc(Cl)cc1`, for which the LD50 worked out at 2.42 mg/kg.

With `O=c1n(CC2CO2)c(=O)n(CC2CO2)c(=O)n1CC1CO1` (centres undefined), the 50% lethal dose (LD50) came to 222 mg/kg.

`COc1ccc(C(=CC(=O)N2CCOCC2)c2ccc(Cl)cc2)cc1OC` displayed an LD50 of 3900 mg/kg.

`CCCC(=O)Nc1ccc(OCC(O)CNC(C)C)c(C(C)=O)c1` (centres undefined) showed an LD50 of 3200 mg/kg.

Molecule `O=[N+]([O-])c1cccc(Cl)c1` registered a median lethal dose (LD50) of 300 mg/kg.

Take `C/C(=N\C#N)N(C)Cc1ccc(Cl)nc1`: the 50% lethal dose (LD50) is 146 mg/kg.

Molecule `CCOP(=S)(OCC)Oc1cc(C)nc(C(C)C)n1` came in with an LD50 of 92 mg/kg.

`NC(=O)/C(=C\c1ccc([N+](=O)[O-])o1)c1ccco1`: the LD50 was 340 mg/kg.

Molecule `CCN(CC)c1nc(Nc2ccc(/C=C/c3ccc(Nc4nc(Nc5cc(S(=O)(=O)O)ccc5S(=O)(=O)O)nc(N(CC)CC)n4)cc3S(=O)(=O)O)c(S(=O)(=O)O)c2)nc(Nc2cc(S(=O)(=O)O)ccc2S(=O)(=O)O)n1` had an LD50 of 11300 mg/kg.

For `CCCC(C)(COC(N)=O)COC(N)=O`, the median lethal dose (LD50) was 794 mg/kg.

As for `Cc1ccc(N)cc1Cl`, the LD50 came to 302 mg/kg.

Consider `CCC(C)=NO`, for which the LD50 was found to be 930 mg/kg.

For `CC(CCl)OP(=O)(OC(C)CCl)OC(C)CCl` (centres undefined), the LD50 was determined as 980 mg/kg.

Turning to `CCC(=O)C(CC(C)N(C)C)(c1ccccc1)c1ccccc1` (centres undefined), the LD50 was 30 mg/kg.

Regarding `O=C(C(Cl)(Cl)Cl)C(Cl)(Cl)Cl`, the median lethal dose (LD50) turned out to be 240 mg/kg.

Turning to `CC(C)CCCCCCCO`, the LD50 amounted to 6400 mg/kg.

`C=CC(=O)OCC(O)COCCCCOCC(O)COC(=O)C=C` (centres undefined) gave an LD50 of 200 mg/kg.

In turn, `CCCCC=O` showed a 50% lethal dose (LD50) of 4580 mg/kg.

Consider `CC(=O)Oc1ccccc1C(=O)O`, for which the median lethal dose (LD50) was determined as 1280 mg/kg.

`ClC1=C(Cl)C2(Cl)C3C4CC(C5OC45)C3C1(Cl)C2(Cl)Cl` (centres undefined): the median lethal dose (LD50) was determined as 3 mg/kg.

For `CCOP(=S)(OCC)Oc1ccc(Cl)cc1Cl`, the LD50 worked out at 172 mg/kg.

`Cc1ccc(S(C)(=O)=O)cc1[N+](=O)[O-]` displayed an LD50 of 933 mg/kg.

Molecule `OCCc1ccccn1` returned an LD50 of 3840 mg/kg.

`Cc1ccccc1OCC1CO1` (centres undefined) came in with an LD50 of 2800 mg/kg.

Take `CCCC(=NOCC)C1=C(O)CC(CC(C)SCC)CC1=O` (centres undefined): the median lethal dose (LD50) was found to be 2680 mg/kg.

`OCc1ccco1` yielded an LD50 of 177 mg/kg.

As to `CC(Cc1ccc(C(C)(C)C)cc1)CN1CC(C)OC(C)C1` (centres undefined), the LD50 stood at 1670 mg/kg.

`Clc1nc(Cl)nc(Cl)n1`: the median lethal dose (LD50) worked out at 315 mg/kg.

Take `CCc1ccccc1`: the LD50 was 3500 mg/kg.

`CCC(C)n1c(=O)[nH]c(C)c(Br)c1=O` (centres undefined) showed a median lethal dose (LD50) of 641 mg/kg.

Molecule `CC/C=C\C#N` returned an LD50 of 198 mg/kg.

`CCCCC#N` came in with a 50% lethal dose (LD50) of 332 mg/kg.

`CS(=O)(=O)O` registered an LD50 of 200 mg/kg.

For the molecule `CCO[Si](CCC#N)(OCC)OCC`, the LD50 stood at 5600 mg/kg.

`CC1(C)CC(=O)CC(C)(C#N)C1` (centres undefined) displayed an LD50 of 61.6 mg/kg.

`CCOC(=O)CC(SP(=S)(OC)OC)C(=O)OCC` (centres undefined) showed an LD50 of 1190 mg/kg.

`c1ccc(Nc2ccccc2)cc1` showed an LD50 of 1120 mg/kg.

`C1CCC2CCCCC2C1` (centres undefined) displayed an LD50 of 4170 mg/kg.

Molecule `CC[Si](Cl)(Cl)CC` had an LD50 of 600 mg/kg.

On to `O=[N+]([O-])c1ccc(Cl)c([N+](=O)[O-])c1`, for which the 50% lethal dose (LD50) amounted to 640 mg/kg.

The molecule `CCOc1ccc(NC(N)=O)cc1` registered an LD50 of 1900 mg/kg.

As to `CC(=O)OC(C)C`, the LD50 was 3000 mg/kg.

In turn, `S=c1sc2nc3ccccc3nc2s1` gave a 50% lethal dose (LD50) of 1800 mg/kg.

On to `Oc1c(Br)cc(Br)cc1Br`, for which the LD50 worked out at 1490 mg/kg.

`CCOP(=O)(OCC)OP(=O)(OCC)OCC` gave an LD50 of 0.5 mg/kg.

The molecule `O=c1oc2ccccc2c(O)c1C1CC(c2ccc(-c3ccc(Br)cc3)cc2)Cc2ccccc21` (centres undefined) had an LD50 of 0.16 mg/kg.

In turn, `O=C(O)c1ccccc1C(=O)Nc1cccc2ccccc12` had a median lethal dose (LD50) of 1770 mg/kg.

Turning to `CCCC(C)c1cccc(OC(=O)NC)c1` (centres undefined), the LD50 was found to be 50 mg/kg.

As to `O=[N+]([O-])C(Br)(CO)CO`, the LD50 is 180 mg/kg.

In turn, `CCCCCCCCCCCCOS(=O)(=O)O` had an LD50 of 977 mg/kg.

The molecule `Cc1cccc(N)c1C` returned an LD50 of 930 mg/kg.

`C1CN(SSN2CCOCC2)CCO1` registered an LD50 of 4300 mg/kg.

Turning to `CC(C)(C)NCCOCCO`, the LD50 was 1400 mg/kg.

The molecule `CCCCC(CC)COS(=O)(=O)O` (centres undefined) had an LD50 of 2840 mg/kg.

Molecule `Cc1cccc([N+](=O)[O-])c1C` had an LD50 of 2110 mg/kg.

On to `O=C1CCCC(=O)O1`, for which the LD50 came to 540 mg/kg.

As for `ClCC(Cl)CCl`, the LD50 was determined as 136 mg/kg.

As for `ClC1C(Cl)C(Cl)C(Cl)C(Cl)C1Cl` (centres undefined), the LD50 was 88 mg/kg and 100 mg/kg.

Molecule `CCCCOCCOC(=O)COc1ccc(Cl)cc1Cl` yielded an LD50 of 831 mg/kg.

`CN(C)CC/C=C1\c2ccccc2Sc2ccc(Cl)cc21` registered an LD50 of 200 mg/kg.

For `OCCc1ccccc1`, the LD50 was found to be 1600 mg/kg.

`COP(=S)(OC)SCN1C(=O)c2ccccc2C1=O` registered an LD50 of 26 mg/kg.

The molecule `Cc1ccccc1O` returned an LD50 of 121 mg/kg.

On to `CC1(C)C(C=C(Cl)Cl)C1C(=O)OC(C#N)c1ccc(F)c(Oc2ccccc2)c1` (centres undefined), for which the 50% lethal dose (LD50) turned out to be 270 mg/kg.

The molecule `COC(=O)c1ccccc1C(=O)OC` displayed an LD50 of 2860 mg/kg.
